Source: US5985927A, “Medicaments for the selective treatment of tumor tissues” (priority 1995, dated 1999)

Tests used:
[1] = system: K-562 cancer cells; assay: toxicity effect on K-562 cancer cells as a function of extracellular pH (FACScan and XTT-ELISA); assay type: cell-based
Description: Thus, the toxicity properties of a substance which comes under consideration can be determined experimentally by the FACScan and the XTT-ELISA techniques. Both methods are known in the prior art. […] FACS and XTT techniques can likewise be used to investigate the toxicity of the substances for mononuclear blood cells (MNCs). The proportion of dead cells is detected in the FACS technique by propidium iodide staining, and in the XTT method by conversion of XTT into formazan by mitochondrial dehydrogenase.
To detect pH-sensitive toxic substances, selected substances are allowed to act at various predetermined pH values, for example at pH 5.5, 6.0, 6.5, 7.0 and 7.5, both on tumor cell lines and on MNCs, for example for 4 hours and 24 hours, in order thereafter to measure the number of killed cancer cells or MNCs. Control measurements without addition of pH-sensitive substances are carried out in parallel with this.
The activity of the 4-succinic ester of 2,4-dihydroxybenzoic acid, of trans-3,4-difluorocinnamic acid and of 2,4-dinitrophenol has been investigated. Used for this purpose were the methods of the FACScan and ELISA techniques described above. […] FIG. 2A depicts the effect of trans-3,4-difluorocinnamic acid on K-562 cells. […] FIG. 2B depicts the effect of the same compound on MNCs.

[2] = system: mononuclear blood cells (MNCs); assay: toxicity on mononuclear blood cells (MNCs) as a function of extracellular pH (FACScan and XTT-ELISA); assay type: cell-based; conditions: extracellular pH in the range from 7.2 to 7.4; FIG. 1B
Description: A skilled person is able to find, with the aid of the above information and using his general expert knowledge and a few simple tests, as described hereinafter, compounds which are used according to the invention as medicinal substance. Thus, the toxicity properties of a substance which comes under consideration can be determined experimentally by the FACScan and the XTT-ELISA techniques. Both methods are known in the prior art. It is possible to investigate suspended cancer cell lines such as, for example, K-562, Raji or Daudi by both techniques, but adherent cancer cell lines only by the XTT-ELISA technique. FACS and XTT techniques can likewise be used to investigate the toxicity of the substances for mononuclear blood cells (MNCs). The proportion of dead cells is detected in the FACS technique by propidium iodide staining, and in the XTT method by conversion of XTT into formazan by mitochondrial dehydrogenase. The methods are described, for example, in Tumor-Biologie 1994, 15, 304 and in the biochemistry catalog of Boehringer Mannheim, Germany 0392.C 73.3.1465554 1 CB, Cat. No. 1465 015. […]

[3] = system: small-cell lung tumor (LXFS 650); assay: tumor growth of implanted small-cell lung tumor (LXFS 650) in nude mice; assay type: in vivo; conditions: tail vein injection, 4 consecutive days, FIG. 4
Description: The three compounds mentioned above by way of example have likewise been investigated for their in vivo suitability in an animal model. Nude mice are chosen as animal model, into which it is possible to implant various human tumors. This makes it possible to investigate the therapeutic efficacy of the substances under defined reproducible conditions. An animal experiment of this type is documented in FIG. 4. A routine method which is conventional in the prior art and is outlined below is used.
A small-cell lung tumor (LXFS 650) whose extra-cellular pH of about 6.9 is close to the physiological pH of 7.2-7.3 is implanted into the nude mice. The therapeutic substance used is, as in FIG. 1, 2,4-di-hydroxybenzoic acid (substance (1)). 3-4 weeks after implantation of the tumor, 15 mice with tumors 5-7 mm in diameter are divided into 3 groups: the first group of 5 serves as control group without therapy, and the substance (1) is injected into the tail vein in a concentration of 200 mg/kg/day in the second group of 5 and in a concentration of 400 mg/kg/day in the third group of 5. In the present experiment, 4 injections into the tail vein were carried out on 4 consecutive days. […] The tumor volumes were determined on days 7, 10, 14 and 17.

[4] = K-562 cancer cells, extracellular pH, FIG. 1A

O=C(O)CCC(=O)Oc1ccc(C(=O)O)c(O)c1 [4-succinic ester of 2,4-dihydroxybenzoic acid]
pH of maximum toxicity effect on K-562 cells [1, 4]: 5.7 | pH of onset of toxicity effect on K-562 cells [1, 4]: ~6.5 | toxicity on MNCs [2]: Negligible toxicity

O=C(O)c1ccc(O)cc1O [substance (1), 2,4-di-hydroxybenzoic acid]
effect on tumor growth ([3]; 200 mg/kg/day, only on day 10): onset of a slight effect only on day 10 | tumor growth ([3]; 400 mg/kg/day, after day 7 and up to day 10): cessation of growth | tumor growth after end of therapy ([3]; 400 mg/kg/day, after day 10, therapy not continued further): the tumor starts to grow again

O=C(O)/C=C/c1ccc(F)c(F)c1 [trans-3,4-difluorocinnamic acid]
extracellular pH until which the cytotoxic effect on K-562 cells is negligible ([1]; cytotoxic effect negligible until the extracellular pH is below this value, K-562 cells, FIG. 2A): below 6.5
